Source: patent US20230117034A1, “PYRAZOLOTRIAZINES” (Bayer Aktiengesellschaft, priority 2019, published 2023)

Target: T1, CDK9/CycT1 (Homo sapiens, UniProt P50750)
T1 construct: Recombinant full-length His-tagged human CDK9 and CycT1; purchased Life Technologies PV4131; host or cells: insect cells
Assay: CDK9/CycT1 high ATP kinase assay (TR-FRET, 2 mM ATP)
Type: biochemical
Conditions: 2 mM ATP (high ATP); median; read-out: CDK9/CyclinT1, 2 mM ATP (high ATP), IC50 (median)
Outline: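 Full-length His-tagged human CDK9/CycT1 (insect cell, ~0.5 μg/mL) preincubated 15 min at 22 °C with compound in Tris pH 8.0, MgCl2, DTT buffer before reaction with biotinylated peptide substrate at high ATP (2 mM).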

T1 sequence (P50750 whole entry): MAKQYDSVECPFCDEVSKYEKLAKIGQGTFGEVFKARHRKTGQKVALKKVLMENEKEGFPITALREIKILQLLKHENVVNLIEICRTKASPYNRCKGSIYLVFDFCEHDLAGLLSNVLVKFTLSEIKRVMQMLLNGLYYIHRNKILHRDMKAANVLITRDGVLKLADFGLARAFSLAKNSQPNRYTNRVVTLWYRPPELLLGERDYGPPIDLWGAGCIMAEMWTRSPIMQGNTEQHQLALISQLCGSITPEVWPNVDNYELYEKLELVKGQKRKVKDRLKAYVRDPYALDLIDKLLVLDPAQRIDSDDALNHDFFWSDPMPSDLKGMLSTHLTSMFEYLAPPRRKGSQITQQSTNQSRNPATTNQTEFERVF
T1 sequence (O60563 whole entry partner): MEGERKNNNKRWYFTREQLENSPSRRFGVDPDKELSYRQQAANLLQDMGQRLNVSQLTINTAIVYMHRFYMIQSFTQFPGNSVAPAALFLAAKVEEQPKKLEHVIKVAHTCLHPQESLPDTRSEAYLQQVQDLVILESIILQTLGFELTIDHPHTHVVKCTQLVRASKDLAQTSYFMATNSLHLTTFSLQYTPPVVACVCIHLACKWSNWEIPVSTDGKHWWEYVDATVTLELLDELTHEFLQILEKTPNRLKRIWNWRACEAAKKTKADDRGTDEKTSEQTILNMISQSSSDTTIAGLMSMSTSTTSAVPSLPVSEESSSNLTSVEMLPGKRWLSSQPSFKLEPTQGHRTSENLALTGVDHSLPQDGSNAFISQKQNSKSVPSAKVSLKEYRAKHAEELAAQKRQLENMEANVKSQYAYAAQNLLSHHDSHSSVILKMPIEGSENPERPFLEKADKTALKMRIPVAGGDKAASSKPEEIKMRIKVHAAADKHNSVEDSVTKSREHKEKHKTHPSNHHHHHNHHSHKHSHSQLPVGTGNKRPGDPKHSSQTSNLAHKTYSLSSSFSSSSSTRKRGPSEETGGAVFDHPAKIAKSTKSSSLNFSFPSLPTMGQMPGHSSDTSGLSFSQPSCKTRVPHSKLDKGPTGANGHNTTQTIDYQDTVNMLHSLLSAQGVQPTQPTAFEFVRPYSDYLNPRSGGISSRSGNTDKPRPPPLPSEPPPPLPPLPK

Compound	IC50 [µM]
Fc1ccc(-c2nnc(CNc3nc(N4CCOCC4)nc4c(Br)cnn34)[nH]2)c(F)c1 [Example 41, 8-bromo-N-{[5-(2,4-difluorophenyl)-4H-1,2,4-triazol-3-yl]methyl}-2-(morpholin-4-yl)pyrazolo[1,5-a][1,3,5]triazin-4-amine]	> 20
CC(C)c1cnn2c(NCc3nnc(-c4ccccc4)[nH]3)nc(N3CCN(C)CC3)nc12 [Example 37, 2-(4-methylpiperazin-1-yl)-N-[(5-phenyl-4H-1,2,4-triazol-3-yl)methyl]-8-(propan-2-yl)pyrazolo[1,5-a][1,3,5]triazin-4-amine]	> 20
C[C@H]1COCCN1c1nc(NCc2nc3ccccc3[nH]2)n2ncc(Br)c2n1 [Example 57, N-[(1H-benzimidazol-2-yl)methyl]-8-bromo-2-[(3S)-3-methylmorpholin-4-yl]pyrazolo[1,5-a][1,3,5]triazin-4-amine]	6.67
COc1cccc(-c2nnc(CNc3nc(N4CCOCC4)nc4c(Br)cnn34)[nH]2)c1 [Example 50, 8-bromo-N-{[5-(3-methoxyphenyl)-4H-1,2,4-triazol-3-yl]methyl}-2-(morpholin-4-yl)pyrazolo[1,5-a][1,3,5]triazin-4-amine]	2.01
CC(C)c1cnn2c(NCc3ncc(-c4ccccc4)[nH]3)nc(N(C)CC(C)(C)O)nc12 [Example 35, 2-methyl-1-{methyl[4-{[(5-phenyl-1H-imidazol-2-yl)methyl]amino}-8-(propan-2-yl)pyrazolo[1,5-a][1,3,5]triazin-2-yl]amino}propan-2-ol]	9.15
OC[C@@H]1CCCCN1c1nc(NCc2nc3ccccc3[nH]2)n2ncc(Br)c2n1 [Example 59, [(2S)-1-(4-{[(1H-benzimidazol-2-yl)methyl]amino}-8-bromopyrazolo[1,5-a][1,3,5]triazin-2-yl)piperidin-2-yl]methanol]	10.7
Clc1cccc(-c2nnc(CNc3nc(N4CCOCC4)nc4c(Br)cnn34)[nH]2)c1 [Example 51, 8-bromo-N-{[5-(3-chlorophenyl)-4H-1,2,4-triazol-3-yl]methyl}-2-(morpholin-4-yl)pyrazolo[1,5-a][1,3,5]triazin-4-amine]	1.29
Fc1cccc(-c2nnc(CNc3nc(N4CCOCC4)nc4c(Br)cnn34)[nH]2)c1 [Example 44, 8-bromo-N-{[5-(3-fluorophenyl)-4H-1,2,4-triazol-3-yl]methyl}-2-(morpholin-4-yl)pyrazolo[1,5-a][1,3,5]triazin-4-amine]	0.885
CCNc1nc(NCc2nnc(-c3ccccc3)[nH]2)n2ncc(C(C)C)c2n1 [Example 38, N^2-ethyl-N^4-[(5-phenyl-4H-1,2,4-triazol-3-yl)methyl]-8-(propan-2-yl)pyrazolo[1,5-a][1,3,5]triazine-2,4-diamine]	> 20
N#Cc1cccc(-c2nnc(CNc3nc(N4CCOCC4)nc4c(Br)cnn34)[nH]2)c1 [Example 55, 3-[5-({[8-bromo-2-(morpholin-4-yl)pyrazolo[1,5-a][1,3,5]triazin-4-yl]amino}methyl)-4H-1,2,4-triazol-3-yl]benzonitrile]	0.718
CC(C)c1cnn2c(NCc3nnc(-c4ccccc4)[nH]3)nc(N(C)CC(C)(C)O)nc12 [Example 39, 2-methyl-1-{methyl[4-{[(5-phenyl-4H-1,2,4-triazol-3-yl)methyl]amino}-8-(propan-2-yl)pyrazolo[1,5-a][1,3,5]triazin-2-yl]amino}propan-2-ol]	4.91
FC(F)(F)c1cccc(-c2nnc(CNc3nc(N4CCOCC4)nc4c(Br)cnn34)[nH]2)c1 [Example 52, 8-bromo-2-(morpholin-4-yl)-N-({5-[3-(trifluoromethyl)phenyl]-4H-1,2,4-triazol-3-yl}methyl)pyrazolo[1,5-a][1,3,5]triazin-4-amine]	1.84
N#Cc1cnn2c(NCc3nc4ccccc4[nH]3)nc(N3CCOCC3)nc12 [Example 43, 4-{[(1H-benzimidazol-2-yl)methyl]amino}-2-(morpholin-4-yl)pyrazolo[1,5-a][1,3,5]triazine-8-carbonitrile]	> 20
C[C@@H]1COCCN1c1nc(NCc2nc3ccccc3[nH]2)n2ncc(Br)c2n1 [Example 56, N-[(1H-benzimidazol-2-yl)methyl]-8-bromo-2-[(3R)-3-methylmorpholin-4-yl]pyrazolo[1,5-a][1,3,5]triazin-4-amine]	> 20
Brc1cnn2c(NCc3nc4ccccc4[nH]3)nc(N3CCCCC3)nc12 [Example 46, N-[(1H-benzimidazol-2-yl)methyl]-8-bromo-2-(piperidin-1-yl)pyrazolo[1,5-a][1,3,5]triazin-4-amine]	> 20
Brc1cnn2c(NCc3nc4ccccc4[nH]3)nc(N3CCCC3)nc12 [Example 47, N-[(1H-benzimidazol-2-yl)methyl]-8-bromo-2-(pyrrolidin-1-yl)pyrazolo[1,5-a][1,3,5]triazin-4-amine]	> 20
Clc1ccc(-c2nnc(CNc3nc(N4CCOCC4)nc4c(Br)cnn34)[nH]2)cc1 [Example 45, 8-bromo-N-{[5-(4-chlorophenyl)-4H-1,2,4-triazol-3-yl]methyl}-2-(morpholin-4-yl)pyrazolo[1,5-a][1,3,5]triazin-4-amine]	3.41
CC(C)c1cnn2c(NCc3ncc(-c4ccccc4)[nH]3)nc(N3CCCCC3)nc12 [Example 36, N-[(5-phenyl-1H-imidazol-2-yl)methyl]-2-(piperidin-1-yl)-8-(propan-2-yl)pyrazolo[1,5-a][1,3,5]triazin-4-amine]	> 20
OC[C@H]1CCCCN1c1nc(NCc2nc3ccccc3[nH]2)n2ncc(Br)c2n1 [Example 60, [(2R)-1-(4-{[(1H-benzimidazol-2-yl)methyl]amino}-8-bromopyrazolo[1,5-a][1,3,5]triazin-2-yl)piperidin-2-yl]methanol]	7.34
Brc1cnn2c(NCc3nnc(-c4ccccc4)[nH]3)nc(N3CCCCC3)nc12 [Example 49, 8-bromo-N-[(5-phenyl-4H-1,2,4-triazol-3-yl)methyl]-2-(piperidin-1-yl)pyrazolo[1,5-a][1,3,5]triazin-4-amine]	2.61
Brc1cnn2c(NCc3nc4ccccc4[nH]3)nc(N3CC4(COC4)C3)nc12 [Example 48, N-[(1H-benzimidazol-2-yl)methyl]-8-bromo-2-(2-oxa-6-azaspiro[3.3]heptan-6-yl)pyrazolo[1,5-a][1,3,5]triazin-4-amine]	> 20
Brc1cnn2c(NCc3nnc(-c4ccccn4)[nH]3)nc(N3CCOCC3)nc12 [Example 54, 8-bromo-2-(morpholin-4-yl)-N-{[5-(pyridin-2-yl)-4H-1,2,4-triazol-3-yl]methyl}pyrazolo[1,5-a][1,3,5]triazin-4-amine]	6.24
Cc1cccc(-c2nnc(CNc3nc(N4CCOCC4)nc4c(Br)cnn34)[nH]2)c1 [Example 40, 8-bromo-N-{[5-(3-methylphenyl)-4H-1,2,4-triazol-3-yl]methyl}-2-(morpholin-4-yl)pyrazolo[1,5-a][1,3,5]triazin-4-amine]	2.82
CC1(C)CN(c2nc(NCc3nc4ccccc4[nH]3)n3ncc(Br)c3n2)CCO1 [Example 58, N-[(1H-benzimidazol-2-yl)methyl]-8-bromo-2-(2,2-dimethylmorpholin-4-yl)pyrazolo[1,5-a][1,3,5]triazin-4-amine]	> 20
Brc1cnn2c(NCc3nnc(-c4cccnc4)[nH]3)nc(N3CCOCC3)nc12 [Example 53, 8-bromo-2-(morpholin-4-yl)-N-{[5-(pyridin-3-yl)-4H-1,2,4-triazol-3-yl]methyl}pyrazolo[1,5-a][1,3,5]triazin-4-amine]	1.29
